Columns and labels:
GSPT1 [1] = target: T1, GSPT1 (Homo sapiens (Human), UniProt P15170+Q96SW2); experiment: quantitative proteomics analysis in ABC1 cells; format: cell-based; details: 100 nM, 6 hr
Method: Quantitative Proteomics Analysis: ABC1 cells were treated with either DMSO (2 replicates) or compound 10 at 100 nM (2 replicates) for 6 hr. Proteins were extracted with the PreOmics iST-NHS lysis buffer (#P.O.00030). The samples were then processed using the PreOmics kit following their recommended protocol with minor modifications. In brief, the proteins were reduced, alkylated and digested for 2 h at 37° C. The peptides were then labelled with TMT reagent (1:4; peptide:TMT label) (Thermo Fisher Scientific). After quenching, the peptides were purified, and the 16 samples were combined to a 1:1 ratio. […] Eluted TMT peptides were analyzed on an Orbitrap Eclipse mass spectrometer (Thermo Fisher Scientific). […] Precursors were fragmented by CID at a normalized collision energy (NCE) of 35% and analyzed in the ion trap. Following MS2, synchronous precursor selection (SPS) MS3 scans were collected by using high energy collision-induced dissociation (HCD) and fragments were analyzed using the Orbitrap (NCE 55%, AGC target 1×10^5, maximum injection time 120 ms, resolution 60,000). Protein identification and quantification were performed using Proteome Discoverer 2.4.0.305 with the SEQUEST algorithm and Uniprot human database (2021 Jan. 29, 20614 protein sequences). […] Protein relative quantification was performed using an in-house developed java notebook. […]
Target sequence in this assay (P15170 whole entry): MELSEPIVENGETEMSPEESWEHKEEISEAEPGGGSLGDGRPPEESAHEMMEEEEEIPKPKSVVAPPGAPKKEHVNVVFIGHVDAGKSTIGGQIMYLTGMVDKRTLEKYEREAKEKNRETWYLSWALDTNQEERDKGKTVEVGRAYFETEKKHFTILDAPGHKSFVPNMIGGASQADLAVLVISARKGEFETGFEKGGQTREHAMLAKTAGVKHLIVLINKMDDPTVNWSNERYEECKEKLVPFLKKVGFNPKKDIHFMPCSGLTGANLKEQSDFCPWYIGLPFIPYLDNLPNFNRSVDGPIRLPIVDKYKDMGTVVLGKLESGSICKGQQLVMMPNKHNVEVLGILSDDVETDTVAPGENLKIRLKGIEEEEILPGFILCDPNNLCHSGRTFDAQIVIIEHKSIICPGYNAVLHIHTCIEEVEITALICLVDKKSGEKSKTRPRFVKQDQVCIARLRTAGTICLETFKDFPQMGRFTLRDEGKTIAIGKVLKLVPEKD
Target sequence in this assay (Q96SW2 whole entry): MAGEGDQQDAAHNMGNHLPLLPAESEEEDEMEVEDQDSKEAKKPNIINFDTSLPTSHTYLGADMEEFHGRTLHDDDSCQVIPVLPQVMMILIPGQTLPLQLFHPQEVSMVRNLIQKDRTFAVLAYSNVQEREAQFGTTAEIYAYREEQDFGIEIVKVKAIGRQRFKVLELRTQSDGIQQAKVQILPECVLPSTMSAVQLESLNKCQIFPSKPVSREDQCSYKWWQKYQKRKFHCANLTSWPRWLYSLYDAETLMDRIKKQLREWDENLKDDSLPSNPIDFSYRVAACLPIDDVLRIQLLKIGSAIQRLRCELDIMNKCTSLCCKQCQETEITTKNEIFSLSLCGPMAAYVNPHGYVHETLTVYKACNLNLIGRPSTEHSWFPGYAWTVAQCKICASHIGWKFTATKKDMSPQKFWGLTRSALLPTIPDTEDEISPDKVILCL
Target sequence in this assay (Q16531 2-1140 partner): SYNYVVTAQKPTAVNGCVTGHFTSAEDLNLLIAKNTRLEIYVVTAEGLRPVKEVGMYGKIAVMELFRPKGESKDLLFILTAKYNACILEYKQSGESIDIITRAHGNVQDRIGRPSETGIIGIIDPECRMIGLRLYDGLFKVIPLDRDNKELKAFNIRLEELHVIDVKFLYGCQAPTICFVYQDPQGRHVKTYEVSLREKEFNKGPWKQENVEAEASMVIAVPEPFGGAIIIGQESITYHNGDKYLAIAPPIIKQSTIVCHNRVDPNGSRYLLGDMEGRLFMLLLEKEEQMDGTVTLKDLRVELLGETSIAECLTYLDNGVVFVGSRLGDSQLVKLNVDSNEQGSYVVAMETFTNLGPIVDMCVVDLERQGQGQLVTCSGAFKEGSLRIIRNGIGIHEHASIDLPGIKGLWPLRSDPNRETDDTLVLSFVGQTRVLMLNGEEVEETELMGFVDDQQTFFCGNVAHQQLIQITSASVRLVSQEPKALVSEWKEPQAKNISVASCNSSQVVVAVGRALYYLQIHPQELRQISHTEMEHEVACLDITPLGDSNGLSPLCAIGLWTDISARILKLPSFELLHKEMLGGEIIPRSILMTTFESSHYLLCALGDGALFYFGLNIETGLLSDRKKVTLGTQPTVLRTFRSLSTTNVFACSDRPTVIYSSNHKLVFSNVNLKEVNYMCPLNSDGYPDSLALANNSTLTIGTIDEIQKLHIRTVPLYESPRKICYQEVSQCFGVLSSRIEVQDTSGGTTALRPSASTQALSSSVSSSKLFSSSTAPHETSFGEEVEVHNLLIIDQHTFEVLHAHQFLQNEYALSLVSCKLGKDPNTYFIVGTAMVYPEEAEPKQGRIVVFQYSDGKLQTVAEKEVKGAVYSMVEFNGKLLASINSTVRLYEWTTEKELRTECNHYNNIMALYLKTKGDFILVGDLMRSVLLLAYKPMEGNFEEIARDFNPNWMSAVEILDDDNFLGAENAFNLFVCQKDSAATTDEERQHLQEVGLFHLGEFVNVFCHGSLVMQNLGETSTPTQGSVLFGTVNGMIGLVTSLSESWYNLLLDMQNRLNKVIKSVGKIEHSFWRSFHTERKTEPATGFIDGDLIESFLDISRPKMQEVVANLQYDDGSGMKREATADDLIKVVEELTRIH

GSPT1 [2] = target: T1, GSPT1; experiment: GSPT1 degradation in cells treated with compound (FIG. 1A); format: cell-based; details: cells treated with 0.3 µM
Target sequence in this assay (P15170 whole entry, looked up): as the sequence (P15170 whole entry) above
Target sequence in this assay (Q96SW2 whole entry, looked up): as the sequence (Q96SW2 whole entry) above
Target sequence in this assay (Q16531 whole entry partner, looked up): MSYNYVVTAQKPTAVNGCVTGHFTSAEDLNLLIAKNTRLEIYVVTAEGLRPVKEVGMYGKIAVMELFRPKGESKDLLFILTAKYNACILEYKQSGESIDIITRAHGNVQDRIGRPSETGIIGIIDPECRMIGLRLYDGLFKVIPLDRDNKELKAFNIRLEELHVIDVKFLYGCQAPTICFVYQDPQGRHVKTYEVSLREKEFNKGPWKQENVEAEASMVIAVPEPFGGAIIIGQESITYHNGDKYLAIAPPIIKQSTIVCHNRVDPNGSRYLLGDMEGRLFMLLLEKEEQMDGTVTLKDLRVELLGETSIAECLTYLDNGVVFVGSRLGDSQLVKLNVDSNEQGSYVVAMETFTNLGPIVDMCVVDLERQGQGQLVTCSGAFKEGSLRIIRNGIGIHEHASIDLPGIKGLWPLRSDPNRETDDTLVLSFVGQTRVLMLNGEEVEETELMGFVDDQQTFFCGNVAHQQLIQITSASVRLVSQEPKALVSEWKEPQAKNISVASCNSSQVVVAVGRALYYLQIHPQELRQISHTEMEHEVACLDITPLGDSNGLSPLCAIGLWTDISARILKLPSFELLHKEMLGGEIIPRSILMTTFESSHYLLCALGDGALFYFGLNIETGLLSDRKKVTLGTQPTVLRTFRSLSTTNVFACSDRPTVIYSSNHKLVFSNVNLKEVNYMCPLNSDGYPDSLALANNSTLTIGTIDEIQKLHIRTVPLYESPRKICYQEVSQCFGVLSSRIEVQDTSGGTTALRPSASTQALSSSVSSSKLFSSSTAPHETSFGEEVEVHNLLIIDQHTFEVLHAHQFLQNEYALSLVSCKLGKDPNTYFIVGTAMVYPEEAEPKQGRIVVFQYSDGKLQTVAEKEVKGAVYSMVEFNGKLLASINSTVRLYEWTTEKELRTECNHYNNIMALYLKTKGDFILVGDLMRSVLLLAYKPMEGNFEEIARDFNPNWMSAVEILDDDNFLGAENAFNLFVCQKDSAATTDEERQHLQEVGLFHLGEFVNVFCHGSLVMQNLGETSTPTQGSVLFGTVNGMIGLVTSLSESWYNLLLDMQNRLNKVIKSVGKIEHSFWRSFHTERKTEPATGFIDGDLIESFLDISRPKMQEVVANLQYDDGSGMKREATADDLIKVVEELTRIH

GSPT1 [3] = target: T1, GSPT1; experiment: Mass spectrometry-based proteomics analysis of a treated cancer cell line (FIG. 1B); details: cancer cell line treated with compound; fold-change (log2) vs p-value
Target sequence in this assay (P15170 whole entry, looked up): as the sequence (P15170 whole entry) above
Target sequence in this assay (Q96SW2 whole entry, looked up): as the sequence (Q96SW2 whole entry) above
Target sequence in this assay (Q16531 whole entry partner, looked up): as the sequence (Q16531 whole entry partner, looked up) above

SALL = SALL (Homo sapiens (Human), UniProt Q9UJQ4); experiment: SALL degradation in cells treated with compound (FIG. 1A); format: cell-based; details: concentrations up to 30 µM
human cell line NCI-H526 = experiment: N-Myc-driven mouse xenograft model, NCI-H526 (FIG. 3D); format: in vivo
[4] = system: human cell line NCI-H1155; experiment: N-Myc-driven mouse xenograft model, NCI-H1155 (FIG. 3A); format: in vivo; details: for tumor size (tumor volume): study to day 21
[5] = system: NCI-H1155 cells (human non small cell lung cancer); experiment: NCI-H1155 xenograft study; format: in vivo, female BALB/c nude mice
Method: For the NCI-H1155 xenograft study, cells (human non small cell lung cancer, ATCC CRL-5818) were maintained in vitro as suspension culture in ATCC-formulated DMEM:F12 Medium supplemented as recommended by the provider and kept at 37° C. in an atmosphere of 5% CO2 in air. Cells (0.5 millions) were resuspended in 0.2 mL of PBS with Matrigel (50:50) and inoculated into female BALB/c nude mice, 6-8 weeks old, and allowed to grow to 150 mm^3 in size. Mice were dosed orally with either vehicle or compound 10 at 1 or 3 mg per kilogram daily (filled squares and filled triangles, respectively) or 6 mg per kilogram for 5 continous days followed by 9 days treatment holidays (5 On-9 off) (filled inverted triangles). Compound formulations were prepared fresh daily in 5%vDMSO/95%(30% w/v HP-β-CD in water). Gemcitabine dosed at 40 mg per kilogram, IP, Q4D×5 was used as a positive control (filled rhombi). For this study, mice were dosed for 21 days with tumor volumes measured every 3 days.

CK1alpha = CK1alpha (Homo sapiens (Human), UniProt P48729); experiment: CK1alpha degradation in cells treated with compound (FIG. 1A); format: cell-based; details: concentrations up to 30 µM
[6] = 6 mg/kg PO five days on and nine days off

Chain of CK1alpha (P48729 whole entry, looked up): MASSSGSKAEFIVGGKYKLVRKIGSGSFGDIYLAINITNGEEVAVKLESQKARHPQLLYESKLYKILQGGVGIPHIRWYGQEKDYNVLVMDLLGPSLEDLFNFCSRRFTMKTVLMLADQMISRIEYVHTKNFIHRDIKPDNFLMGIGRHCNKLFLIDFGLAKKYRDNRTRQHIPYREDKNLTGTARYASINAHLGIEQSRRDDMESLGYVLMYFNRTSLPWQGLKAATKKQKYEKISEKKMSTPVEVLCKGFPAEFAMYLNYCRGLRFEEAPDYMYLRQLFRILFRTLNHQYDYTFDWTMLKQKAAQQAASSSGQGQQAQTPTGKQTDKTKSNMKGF
Chain of SALL (Q9UJQ4 whole entry, looked up): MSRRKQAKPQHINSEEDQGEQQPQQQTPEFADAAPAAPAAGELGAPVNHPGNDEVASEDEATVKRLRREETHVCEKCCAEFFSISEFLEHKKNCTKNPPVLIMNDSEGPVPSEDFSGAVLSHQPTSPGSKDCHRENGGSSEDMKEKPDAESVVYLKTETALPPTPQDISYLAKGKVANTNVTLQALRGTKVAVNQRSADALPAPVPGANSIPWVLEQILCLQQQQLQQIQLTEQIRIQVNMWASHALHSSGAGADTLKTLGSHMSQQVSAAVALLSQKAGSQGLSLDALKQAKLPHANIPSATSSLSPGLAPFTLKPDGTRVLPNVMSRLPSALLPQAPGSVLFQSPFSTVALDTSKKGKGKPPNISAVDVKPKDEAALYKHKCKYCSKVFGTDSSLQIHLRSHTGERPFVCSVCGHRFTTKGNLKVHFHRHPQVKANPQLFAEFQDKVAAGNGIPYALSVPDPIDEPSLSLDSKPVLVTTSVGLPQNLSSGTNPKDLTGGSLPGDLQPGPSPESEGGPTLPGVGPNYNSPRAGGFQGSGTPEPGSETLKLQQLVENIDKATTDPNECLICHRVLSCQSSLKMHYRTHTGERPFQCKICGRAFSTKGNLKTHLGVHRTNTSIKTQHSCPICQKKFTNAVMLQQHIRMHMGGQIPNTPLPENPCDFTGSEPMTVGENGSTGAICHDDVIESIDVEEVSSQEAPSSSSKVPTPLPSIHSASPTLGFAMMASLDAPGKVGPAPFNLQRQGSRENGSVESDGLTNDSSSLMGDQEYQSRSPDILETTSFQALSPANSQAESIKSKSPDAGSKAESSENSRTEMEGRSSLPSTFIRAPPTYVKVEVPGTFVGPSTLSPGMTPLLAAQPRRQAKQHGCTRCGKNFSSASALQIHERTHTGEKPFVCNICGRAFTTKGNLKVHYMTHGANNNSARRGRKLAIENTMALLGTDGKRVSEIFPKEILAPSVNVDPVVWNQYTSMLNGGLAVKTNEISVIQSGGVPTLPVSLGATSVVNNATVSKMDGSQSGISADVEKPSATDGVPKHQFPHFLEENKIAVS

For `Cc1ccc(NC(=O)OCc2ccc3c(c2)C(=O)N(C2CCC(=O)NC2=O)C3)cc1Cl` (stereo not shown) [Compound 10], the “protein downregulation by mass spectrometry-based proteomics (FIG. 1B)” value (GSPT1 [1]) was “GSPT1 was the most statistically significant downregulated protein”, the “degradation of GSPT1” value (GSPT1 [2]) was “complete degradation” and the “GSPT1 protein change in proteomics analysis” value (GSPT1 [3]) was “most statistically significant downregulated protein”. The “degradation of SALL” value (SALL) was “no induction of degradation”, the “tumor size (tumor volume)” value (human cell line NCI-H526; 3 mg/kg PO once daily) was “tumor size decreased and remained so until the end of the study” and the “tumor size (tumor volume)” value (human cell line NCI-H526; [6]) was “tumor size decreased and remained so until the end of the study”. The body weight (human cell line NCI-H526; oral administration) was “no body weight loss”, the “effect on tumor growth (tumor volume)” value (human cell line NCI-H526; oral administration) was “tumor growth inhibition” and the “tumor growth (tumor volume)” value ([4]; 1 mg/kg PO once daily) was “tumor growth was suppressed for two weeks”. For the same compound, the “tumor size (tumor volume)” value ([4]; 3 mg/kg PO once daily) was “tumor size decreased, became undetectable by day eight and remained so until the end of the study at day 21”, the “tumor size (tumor volume)” value [4, 6] was “tumor size decreased, became undetectable by day eight and remained so until the end of the study at day 21” and the body weight ([4]; oral administration) was “no body weight loss”. For the same compound, the “effect on tumor growth (tumor volume)” value ([4]; oral administration) was “tumor growth inhibition”, the “tumor growth (FIG. 3A)” value ([5]; 1 mg/kg once daily, oral) was “tumor growth was suppressed for two weeks” and the “tumor size (FIG. 3A)” value ([5]; 3 mg/kg once daily, oral) was “tumor size decreased, became undetectable by day eight and remained so until the end of the study at day 21”. The “tumor size (FIG. 3A)” value ([5]; 6 mg/kg five days on and nine days off, oral) was “tumor size decreased, became undetectable by day eight and remained so until the end of the study at day 21”, the body weight ([5]; oral administration) was “no body weight loss observed” and the “tumor growth (FIG. 3A)” value ([5]; oral administration) was “tumor growth inhibition”. The “degradation of CK1alpha” value (CK1alpha) was “no induction of degradation”.
